Measured values: PubChem BioAssay AID179 (DTP/NCI, 2004)
Calls of active or inactive are those of the source.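 How the source made its calls: active means compounds giving half or more protection of infected cells from virus-caused growth loss, again on retest; inactive means the rest.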

Test system: CEM cells HIV-1 protection, formazan growth assay
Assay: NCI AIDS Antiviral Assay
Conditions: for IC50: measured here: growth of uninfected CEM cells
Method in brief: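 Five concentrations of each compound were applied to infected and uninfected human CEM cells. Protection from HIV-1 was judged from growth measured with a soluble formazan assay.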

## C(=C/[PH+](c1ccccc1)c1ccccc1)/[PH+](c1ccccc1)c1ccccc1.[C-]#[O+].[C-]#[O+].[C-]#[O+].[C-]#[O+].[C-]#[O+].[Mo+2].[Mo+4].[c-]1[c-][c-][cH-][c-]1.[c-]1[c-][c-][cH-][c-]1
  EC50: > 6.03 µM
  IC50: 3.31 µM

## CCCCC12C3CC4C5C(C)/C(=C6\OC(=O)C(C)=C6OC)OC5(O3)C1CCN42 (stereo unspecified)
  EC50: > 50.1 µM
  IC50: > 50.1 µM

## O=C(Nc1ccc(Cl)c(Cl)c1)C(=O)C(C(=O)c1ccccc1-c1ccccc1)C1OC(=O)c2ccccc21 (stereo unspecified)
  EC50: > 66.1 µM
  IC50: 29.5 µM

## Cc1cccc(N(CCC#N)S(=O)(=O)c2ccccc2)c1
  EC50: > 200 µM
  IC50: 110 µM

## CC(C)=CCC[C@@H](C)C1=C(O)C(O)C(C)=C2N=C(c3ccccc3)C(=O)OC21 (stereo partly specified)
  EC50: > 200 µM
  IC50: 3.8 µM

## CC(=O)OC(Cc1ccc2ccccc2n1)(C(F)(F)F)C(F)(F)F
  outcome: inactive

## Cc1nc(N)c(N2CCN([N+](=O)[O-])CC2)c(=O)[nH]1
  outcome: inactive

## O=C(Cc1ccc([N+](=O)[O-])c([N+](=O)[O-])c1CC(=O)C(=O)Nc1cc(Cl)ccc1Cl)C(=O)Nc1cc(Cl)ccc1Cl
  EC50: > 47.9 µM
  IC50: 9.33 µM

## CCCc1cc(=O)oc2c3c(c4c(c12)OC(C)(C)[C@H](O)[C@@H]4O)O[C@@H](C)[C@H](C)[C@@H]3O
  EC50: > 200 µM
  IC50: 87.1 µM

## COc1ccc(-c2c(C(C)=O)c(C)n(C3OC(CO)C(O)C(O)C3O)c(=S)c2C#N)cc1 (stereo unspecified)
  EC50: > 200 µM
  IC50: 58.9 µM

## C=C1CC(C)(COc2cc(=O)oc3ccccc23)OC1=O (stereo unspecified)
  EC50: > 200 µM
  IC50: 1.74 µM

## CC(C)CN(C[C@@H](O)[C@H](Cc1ccccc1)NC(=O)[C@H](CC(N)=O)NC(=O)c1ccc2ccccc2n1)C(=O)NC(C)(C)C
  outcome: active
  IC50: 93.3 µM

## O=C1CCCc2[nH]c(=O)ccc21
  outcome: inactive

## COC(=O)c1ncc2c(=O)[nH]c3ccccc3c2c1C(=O)OC
  EC50: > 16.6 µM
  IC50: > 16.6 µM

## C=CCC1(c2ccccc2)Oc2cccnc2-n2cccc2C1=O (stereo unspecified)
  EC50: > 200 µM
  IC50: 8.91 µM

## O=C(NNC(=S)NC1CCCCC1)c1csc(NC(=S)NC2CCCCC2)n1
  EC50: > 20 µM
  IC50: 1.86 µM

## C(=Nc1ccc(C2=NCCN2)cc1)c1ccc(C=Nc2ccc(C3=NCCN3)cc2)cc1
  EC50: > 200 µM
  IC50: 11.7 µM

## Cc1cc(N=Nc2ccc(C(=O)O)cc2)c(N)c(N=Nc2ccc(N=Nc3ccc(O)c(C(=O)O)c3)cc2)c1N
  EC50: 38 µM
  IC50: 195 µM

## Cc1nnc(NS(=O)(=O)c2ccc(N=NC3SC(=S)NC3=O)cc2)s1 (stereo unspecified)
  EC50: > 200 µM
  IC50: > 200 µM

## Cc1ccc([N+](=O)[O-])cc1NC(=O)/C(=N/NC(=S)NN)C1SC(=S)NC1=O (stereo unspecified)
  EC50: > 302 µM
  IC50: > 302 µM

## N=C(N)C1CN(CCCCCCCCCCN2CC(C(=N)N)C(=O)NC2=O)C(=O)NC1=O (stereo unspecified)
  EC50: > 200 µM
  IC50: > 200 µM

## O=C(Nc1ccc(Cl)cc1Cl)C1C(=O)OC2(CCCCC2)OC1=O
  EC50: > 200 µM
  IC50: 13.8 µM

## NC(=O)c1ccc([As](=O)(O)O)cc1N
  EC50: > 200 µM
  IC50: > 200 µM

## O=C1NC2C(=CC(O)C(O)C2O)c2cc3c(cc21)OCO3 (stereo unspecified)
  EC50: > 8.51 µM
  IC50: 0.174 µM

## CN(C)CCOC1(CC2CCCCC2)CCC(C(C)(C)C)CC1 (stereo unspecified)
  EC50: > 200 µM
  IC50: 8.13 µM

## NC(=O)C(NC=O)c1ccccc1 (stereo unspecified)
  EC50: > 200 µM
  IC50: > 200 µM

## O=C(N/C(=C\c1cc(Cl)ccc1Cl)c1nc2ccccc2[nH]1)c1ccccc1
  outcome: inactive

## O=[N+]([O-])c1ccc2c([N+](=O)[O-])ccc3c2c1CC3
  EC50: > 200 µM
  IC50: 21.9 µM

## O/N=C1/C(=C/c2ccc(Br)cc2)CCCC1C(NO)c1ccc(Br)cc1 (stereo unspecified)
  EC50: > 20.9 µM
  IC50: > 20.9 µM

## COc1ccc2c(c1)[nH]c(=O)c1c3ccccc3[nH]c21
  EC50: > 200 µM
  IC50: 145 µM

## COC1CC(O[C@H]2CC[C@@]3(C)[C@H](CC[C@@H]4[C@@H]3CC[C@]3(C)[C@@H](C5=CC(=O)OC5)[C@@H](OC(C)=O)C[C@]43O)C2)OC(C)C1O (stereo partly specified)
  EC50: > 0.2 µM
  IC50: 0.0102 µM

## CC1(C)C2CC(=O)C1(C)C(OCc1ccccc1)C2 (stereo unspecified)
  outcome: inactive

## COc1ccc(C(C2=C(O)CC(C)OC2=O)C2=C(O)CC(C)OC2=O)cc1 (stereo unspecified)
  EC50: > 661 µM
  IC50: 427 µM

## CCOC(=O)c1cc(/C=C/C(C)=C/C(=O)OC)oc1-c1ccccc1
  outcome: inactive

## O=C(CCCCC1CCSS1)N(C(=O)NC1CCCCC1)C1CCCCC1 (stereo unspecified)
  EC50: > 200 µM
  IC50: 10.5 µM

## COc1ccc(/C=N/NS(=O)(=O)c2ccc(/C=C3\NC(=O)N(C)C3=O)cc2)cc1
  EC50: > 200 µM
  IC50: > 200 µM

## C=C(C)[C@@H]1CC[C@]2(C)CC[C@]3(C)[C@H](CC[C@@H]4[C@@]5(C)CC[C@H](O)C(C)(C)[C@@H]5CC[C@]43C)[C@@H]12
  EC50: > 100 µM
  IC50: 51.3 µM

## COC(=O)c1c2c(cc3c1CC1(Cc4cc5c(c(C(C)=O)c4C1)CCC5)C3)CCC2 (stereo unspecified)
  EC50: > 6.46 µM
  IC50: > 6.46 µM

## C[C@H]1CC[C@@H]2[C@@H](C)C[C@H]3[C@@H]4C(C)(C)OC(=O)[C@]4(C)C(=O)[C@@]23C1=O
  EC50: > 200 µM
  IC50: 77.6 µM

## CCCCNC(=O)C1=C(C)NC(C)=C(C(=O)NCCCC)C1
  EC50: > 200 µM
  IC50: > 200 µM

## c1cnc2c(c1)Nc1cnncc1S2
  EC50: > 200 µM
  IC50: > 200 µM

## Cc1cc2c(cc1Cl)SC(NNC(=O)c1ccncc1)=NS2(=O)=O
  EC50: > 200 µM
  IC50: > 200 µM

## CCOC(=O)/C(C#N)=C\C=C1/C=CNC2=NCCN21
  EC50: 19.5 µM
  IC50: 24.5 µM

## S=C(/C=C1\SC(=Nc2ccccc2)C(=Nc2ccccc2)N1c1ccccc1)Nc1ccccc1
  EC50: > 200 µM
  IC50: > 200 µM

## O=C(NC1C=Nc2ccc(Cl)cc2NC1=O)c1ccc(Cl)cc1 (stereo unspecified)
  EC50: > 200 µM
  IC50: > 200 µM

## COC(=O)CC1CCC(c2ccn(S(=O)(=O)c3ccccc3)c2)=NO1 (stereo unspecified)
  EC50: > 200 µM
  IC50: > 200 µM

## Clc1ccc2nc(CCSCCc3nc4ccc(Cl)cc4[nH]3)[nH]c2c1
  outcome: inactive

## Cc1cc(NC(=O)c2ccc(NC(=O)c3ccc(N)cc3)cc2)ccc1N=Nc1ccc2c(O)c(N=Nc3ccc(S(=O)(=O)O)cc3C)c(S(=O)(=O)O)cc2c1
  EC50: 6.17 µM
  IC50: > 100 µM

## CC(=O)Nc1ccc(/C=N/Nc2nnc(N/N=C/c3ccc(NC(C)=O)cc3)c3ccccc23)cc1
  EC50: > 200 µM
  IC50: 7.59 µM

## N#CC1=C(N)N(/N=C/c2ccco2)C(c2ccco2)C1(C#N)C#N (stereo unspecified)
  EC50: > 200 µM
  IC50: 7.94 µM

## COc1ccc(/C=C2\CN(C)Cc3c2[nH]c(=O)c(C#N)c3-c2ccc(OC)cc2)cc1
  EC50: > 200 µM
  IC50: 97.7 µM

## C[C@H](CCC1=NCCN1)[C@H]1CC[C@H]2[C@@H]3CC[C@@H]4C[C@H](O)CC[C@]4(C)[C@H]3C[C@H](O)[C@]12C
  EC50: > 200 µM
  IC50: 11.5 µM

## c1ccc(-c2nc(-c3ccccc3)n3c(-c4ccccc4)nnc3n2)cc1
  EC50: > 14.8 µM
  IC50: > 14.8 µM

## CCOC(=O)C12C3C(=O)N(CC)C(=O)C3ON1OC1C(=O)N(CC)C(=O)C12 (stereo unspecified)
  EC50: > 661 µM
  IC50: 81.3 µM

## c1coc(-c2cc(-c3cc(-c4ccco4)on3)no2)c1
  EC50: > 933 µM
  IC50: 589 µM

## CC1(C)C(=O)CCC(=O)C(C)(C)C2=CC=C(O2)C(C)(C)C(=O)CCC(=O)C(C)(C)C2=CC=C1O2
  outcome: inactive

## CCOC(=O)C(C(=O)OCC)C1c2ccccc2-c2ccccc21
  EC50: > 200 µM
  IC50: 77.6 µM
